# Experimental data from patent US11358952B2, “Substituted 4-aminoisoindoline-1,3-dione compounds, compositions thereof, and methods of treatment therewith” (Celgene Corporation, priority 2018, dated 2022).
# System: SU-DHL-4 cell line
# Experiment: SU-DHL-4 cell proliferation assay (Cell Titer-Glo viability)
# Type: cell-based
# Settings: Homo sapiens; cell viability IC50 activity level, DLBCL cell line SU-DHL-4, 120 hours post-treatment; read-out: SU-DHL-4 Act
# In short: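 Viability read by ATP luminescence (Cell Titer-Glo) at the start and after 120 h of growth at 37°C in 5% CO2. DLBCL cells were seeded at 500 per well with compound across 0.5 nM–10 μM in 20 points, 0.1% DMSO. A four-parameter sigmoidal fit gave IC50 as 50% of DMSO control.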
row,IC50,SMILES
1,< 200 nM,"Cc1cc(CNc2cccc3c2C(=O)N(C2CCC(=O)NC2=O)C3=O)ccc1CN1CC(c2cccnc2)C1 (stereo not shown) [Cpd 80, 2-(2,6-dioxopiperidin-3-yl)-4-(3-methyl-4-((3-(pyridin-3-yl)azetidin-1-yl)methyl)benzylamino)isoindoline-1,3-dione]"
2,200 to 500 nM,"Cc1cc(CNc2cccc3c2C(=O)N(C2CCC(=O)NC2=O)C3=O)ccc1CN1CC(c2ccccn2)C1 (stereo not shown) [Cpd 81, 2-(2,6-dioxopiperidin-3-yl)-4-(3-methyl-4-((3-(pyridin-2-yl)azetidin-1-yl)methyl)benzylamino)isoindoline-1,3-dione]"
3,501 to 750 nM,"Cc1cc(CNc2cccc3c2C(=O)N(C2CCC(=O)NC2=O)C3=O)ccc1CN1CC(Oc2ccccc2)C1 (stereo not shown) [Cpd 82, 2-(2,6-dioxopiperidin-3-yl)-4-(3-methyl-4-((3-phenoxyazetidin-1-yl)methyl)benzylamino)isoindoline-1,3-dione]"
4,< 200 nM,"Cc1cc(CNc2cccc3c2C(=O)N(C2CCC(=O)NC2=O)C3=O)ccc1CN1CC(Oc2ccc(C#N)cc2)C1 (stereo not shown) [Cpd 83, 4-(1-(4-((2-(2,6-dioxopiperidin-3-yl)-1,3-dioxoisoindolin-4-ylamino)methyl)-2-methylbenzyl)azetidin-3-yloxy)benzonitrile]"
5,< 200 nM,"CC1(C)CN(c2ccc(C#N)cn2)CCN1Cc1ccc(CNc2cccc3c2C(=O)N(C2CCC(=O)NC2=O)C3=O)cc1 (stereo not shown) [Cpd 84, 6-(4-(4-((2-(2,6-dioxopiperidin-3-yl)-1,3-dioxoisoindolin-4-ylamino)methyl)benzyl)-3,3-dimethylpiperazin-1-yl)nicotinonitrile]"
6,< 200 nM,"CC1(C)CN(c2ccc(C#N)nc2)CCN1Cc1ccc(CNc2cccc3c2C(=O)N(C2CCC(=O)NC2=O)C3=O)cc1 (stereo not shown) [Cpd 85, 5-(4-(4-((2-(2,6-dioxopiperidin-3-yl)-1,3-dioxoisoindolin-4-ylamino)methyl)benzyl)-3,3-dimethylpiperazin-1-yl)picolinonitrile]"
7,< 200 nM,"CC1(C)CN(c2ccc(C(N)=O)nc2)CCN1Cc1ccc(CNc2cccc3c2C(=O)N(C2CCC(=O)NC2=O)C3=O)cc1 (stereo not shown) [Cpd 86, 5-(4-(4-((2-(2,6-dioxopiperidin-3-yl)-1,3-dioxoisoindolin-4-ylamino)methyl)benzyl)-3,3-dimethylpiperazin-1-yl)picolinamide]"
8,501 to 750 nM,"CCC1(O)CCN(Cc2ccc(CNc3cccc4c3C(=O)N(C3CCC(=O)NC3=O)C4=O)cc2)CC1 (stereo not shown) [Cpd 88, 2-(2,6-dioxopiperidin-3-yl)-4-(4-((4-ethyl-4-hydroxypiperidin-1-yl)methyl)benzylamino)isoindoline-1,3-dione]"
9,< 200 nM,"CCOC1(C)CCN(Cc2ccc(CNc3cccc4c3C(=O)N(C3CCC(=O)NC3=O)C4=O)cc2)CC1 (stereo not shown) [Cpd 89, 2-(2,6-dioxopiperidin-3-yl)-4-(4-((4-ethoxy-4-methylpiperidin-1-yl)methyl)benzylamino)isoindoline-1,3-dione]"
10,< 200 nM,"O=C1CCC(N2C(=O)c3cccc(NCc4ccc(CN5CCC6(CCCO6)CC5)cc4)c3C2=O)C(=O)N1 (stereo not shown) [Cpd 90, 4-(4-(1-oxa-8-azaspiro[4.5]decan-8-ylmethyl)benzylamino)-2-(2,6-dioxopiperidin-3-yl)isoindoline-1,3-dione]"
11,< 200 nM,"NC(=O)c1ccc(N2CCN(Cc3ccc(CNc4cccc5c4C(=O)N([C@@H]4CCC(=O)NC4=O)C5=O)cc3)CC2)cn1 [Cpd 91, (R)-5-(4-(4-((2-(2,6-dioxopiperidin-3-yl)-1,3-dioxoisoindolin-4-ylamino)methyl)benzyl)piperazin-1-yl)picolinamide]"
12,< 200 nM,"CC(C)(C)C1CCN(Cc2ccc(CNc3cccc4c3C(=O)N(C3CCC(=O)NC3=O)C4=O)cc2F)CC1 (stereo not shown) [Cpd 92, 4-(4-((4-tert-butylpiperidin-1-yl)methyl)-3-fluorobenzylamino)-2-(2,6-dioxopiperidin-3-yl)isoindoline-1,3-dione]"
13,< 200 nM,"CC(C)(C)N1CCN(Cc2ccc(CNc3cccc4c3C(=O)N(C3CCC(=O)NC3=O)C4=O)cc2F)CC1 (stereo not shown) [Cpd 93, 4-(4-((4-tert-butylpiperazin-1-yl)methyl)-3-fluorobenzylamino)-2-(2,6-dioxopiperidin-3-yl)isoindoline-1,3-dione]"
14,< 200 nM,"CC(C)(C)C1CCN(Cc2ccc(CNc3cccc4c3C(=O)N(C3CCC(=O)NC3=O)C4=O)c(F)c2)CC1 (stereo not shown) [Cpd 94, 4-(4-((4-tert-butylpiperidin-1-yl)methyl)-2-fluorobenzylamino)-2-(2,6-dioxopiperidin-3-yl)isoindoline-1,3-dione]"
15,< 200 nM,"CC(C)(C)N1CCN(Cc2ccc(CNc3cccc4c3C(=O)N(C3CCC(=O)NC3=O)C4=O)c(F)c2)CC1 (stereo not shown) [Cpd 95, 4-(4-((4-tert-butylpiperazin-1-yl)methyl)-2-fluorobenzylamino)-2-(2,6-dioxopiperidin-3-yl)isoindoline-1,3-dione]"
16,< 200 nM,"Cc1cc(CN2CCC(C(C)(C)C)CC2)ccc1CNc1cccc2c1C(=O)N(C1CCC(=O)NC1=O)C2=O (stereo not shown) [Cpd 96, 4-(4-((4-tert-butylpiperidin-1-yl)methyl)-2-methylbenzylamino)-2-(2,6-dioxopiperidin-3-yl)isoindoline-1,3-dione]"
17,501 to 750 nM,"Cc1cc(CN2CCN(C(C)(C)C)CC2)ccc1CNc1cccc2c1C(=O)N(C1CCC(=O)NC1=O)C2=O (stereo not shown) [Cpd 97, 4-(4-((4-tert-butylpiperazin-1-yl)methyl)-2-methylbenzylamino)-2-(2,6-dioxopiperidin-3-yl)isoindolline-1,3-dione]"
18,< 200 nM,"NC(=O)c1ccc(N2CCN(Cc3ccc(CNc4cccc5c4C(=O)N(C4CCC(=O)NC4=O)C5=O)cc3F)CC2)cn1 (stereo not shown) [Cpd 98, 5-(4-(4-((2-(2,6-dioxopiperidin-3-yl)-1,3-dioxoisoindolin-4-ylamino)methyl)-2-fluorobenzyl)piperazin-1-yl)picolinamide]"
19,< 200 nM,"CC(C)C1CCN(Cc2ccc(CNc3cccc4c3C(=O)N(C3CCC(=O)NC3=O)C4=O)cc2F)CC1 (stereo not shown) [Cpd 99, 2-(2,6-dioxopiperidin-3-yl)-4-(3-fluoro-4-((4-isopropylpiperidin-1-yl)methyl)benzylamino)isoindoline-1,3-dione]"
20,200 to 500 nM,"Cc1cc(CN2CCC(C(C)C)CC2)ccc1CNc1cccc2c1C(=O)N(C1CCC(=O)NC1=O)C2=O (stereo not shown) [Cpd 100, 2-(2,6-dioxopiperidin-3-yl)-4-(4-((4-isopropylpiperidin-1-yl)methyl)-2-methylbenzylamino)isoindoline-1,3-dione]"
21,200 to 500 nM,"Cc1cc(CN2CCN(c3ccc(F)cc3F)CC2)ccc1CNc1cccc2c1C(=O)N(C1CCC(=O)NC1=O)C2=O (stereo not shown) [Cpd 101, 4-(4-((4-(2,4-difluorophenyl)piperazin-1-yl)methyl)-2-methylbenzylamino)-2-(2,6-dioxopiperidin-3-yl)isoindoline-1,3-dione]"
22,< 200 nM,"N#Cc1ccc(C2CN(Cc3ccc(CNc4cccc5c4C(=O)N(C4CCC(=O)NC4=O)C5=O)cc3F)C2)cc1 (stereo not shown) [Cpd 102, 4-(1-(4-((2-(2,6-dioxopiperidin-3-yl)-1,3-dioxoisoindolin-4-ylamino)methyl)-2-fluorobenzyl)azetidin-3-yl)benzonitrile]"
23,< 200 nM,"CC(C)C1CCN(Cc2ccc(CNc3cccc4c3C(=O)N(C3CCC(=O)NC3=O)C4=O)c(F)c2)CC1 (stereo not shown) [Cpd 103, 2-(2,6-dioxopiperidin-3-yl)-4-(2-fluoro-4-((4-isopropylpiperidin-1-yl)methyl)benzylamino)isoindoline-1,3-dione]"
24,< 200 nM,"N#Cc1ccc(C2CN(Cc3ccc(CNc4cccc5c4C(=O)N(C4CCC(=O)NC4=O)C5=O)c(F)c3)C2)cc1 (stereo not shown) [Cpd 104, 4-(1-(4-((2-(2,6-dioxopiperidin-3-yl)-1,3-dioxoisoindolin-4-ylamino)methyl)-3-fluorobenzyl)azetidin-3-yl)benzonitrile]"
25,< 200 nM,"Cc1cc(CN2CC(c3ccc(C#N)cc3)C2)ccc1CNc1cccc2c1C(=O)N(C1CCC(=O)NC1=O)C2=O (stereo not shown) [Cpd 105, 4-(1-(4-((2-(2,6-dioxopiperidin-3-yl)-1,3-dioxoisoindoliln-4-ylamino)methyl)-3-methylbenzyl)azetidin-3-yl)benzonitrile]"
26,200 to 500 nM,"O=C1CCC(N2C(=O)c3cccc(NCc4ccc(CN5CCC(n6cccn6)CC5)c(F)c4)c3C2=O)C(=O)N1 (stereo not shown) [Cpd 106, 4-(4-((4-(1H-pyrazol-1-yl)piperidin-1-yl)methyl)-3-fluorobenzylamino)-2-(2,6-dioxopiperidin-3-yl)isoindoline-1,3-dione]"
27,< 200 nM,"O=C1CCC(N2C(=O)c3cccc(NCc4ccc(CN5CCC(n6cccn6)CC5)cc4F)c3C2=O)C(=O)N1 (stereo not shown) [Cpd 107, 4-(4-((4-(1H-pyrazol-1-yl)piperidin-1-yl)methyl)-2-fluorobenzylamino)-2-(2,6-dioxopiperidin-3-yl)isoindoline-1,3-dione]"
28,< 200 nM,"O=C1CCC(N2C(=O)c3cccc(NCc4ccc(CN5CCN(c6ccc(F)cc6F)CC5)cc4F)c3C2=O)C(=O)N1 (stereo not shown) [Cpd 108, 4-(4-((4-(2,4-difluorophenyl)piperazin-1-yl)methyl)-2-fluorobenzylamino)-2-(2,6-dioxopiperidin-3-yl)isoindoline-1,3-dione]"
29,< 200 nM,"O=C1CCC(N2C(=O)c3cccc(NCc4ccc(CN5CCN(c6ccc(F)cc6F)CC5)c(F)c4)c3C2=O)C(=O)N1 (stereo not shown) [Cpd 109, 4-(4-((4-(2,4-difluorophenyl)piperazin-1-yl)methyl)-3-fluorobenzylamino)-2-(2,6-dioxopiperidin-3-yl)isoindoline-1,3-dione]"
30,< 200 nM,"NC(=O)c1ccc(N2CCN(Cc3ccc(CNc4cccc5c4C(=O)N(C4CCC(=O)NC4=O)C5=O)c(F)c3)CC2)cn1 (stereo not shown) [Cpd 110, 5-(4-(4-((2-(2,6-dioxopiperidin-3-yl)-1,3-dioxoisoindolin-4-ylamino)methyl)-3-fluorobenzyl)piperazin-1-yl)picolinamide]"

row,SMILES,IC50
1,"Cc1cc(CNc2cccc3c2C(=O)N(C2CCC(=O)NC2=O)C3=O)ccc1CN1CCC(OC(C)(C)C)CC1 (stereo not shown) [Cpd 87, 4-(4-((4-tert-butoxypiperidin-1-yl)methyl)-3-methylbenzylamino)-2-(2,6-dioxopiperidin-3-yl)isoindoline-1,3-dione]",< 200 nM
